These results are taken from publication PMC11487536 (ACS Pharmacology & Translational Science, 2024).

Assay [1] deals with T1, sensing domain of P. fluorescens CtaA (Pseudomonas fluorescens, UniProt Q3K7T6).
T1 sequence (Q3K7T6 30-277): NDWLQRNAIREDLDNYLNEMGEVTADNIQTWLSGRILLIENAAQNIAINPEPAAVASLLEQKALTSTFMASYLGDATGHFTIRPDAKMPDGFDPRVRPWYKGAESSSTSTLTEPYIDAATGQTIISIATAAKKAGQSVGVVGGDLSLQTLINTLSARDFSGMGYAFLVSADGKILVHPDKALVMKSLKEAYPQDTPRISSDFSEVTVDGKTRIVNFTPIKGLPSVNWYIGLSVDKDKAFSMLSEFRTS
Put plainly: Thermal shift assay. The conditions noted are these: for Midpoint Transition Temperature in Presence of Ligand, Tm: 5 μM CtaA, ligand 20 μM, pH 5.5. The class given is binding.

Assay [2] deals with T2, sensing domain of C. jejuni Tlp3 (Campylobacter jejuni, UniProt Q0P864).
T2 sequence (Q0P864 41-290): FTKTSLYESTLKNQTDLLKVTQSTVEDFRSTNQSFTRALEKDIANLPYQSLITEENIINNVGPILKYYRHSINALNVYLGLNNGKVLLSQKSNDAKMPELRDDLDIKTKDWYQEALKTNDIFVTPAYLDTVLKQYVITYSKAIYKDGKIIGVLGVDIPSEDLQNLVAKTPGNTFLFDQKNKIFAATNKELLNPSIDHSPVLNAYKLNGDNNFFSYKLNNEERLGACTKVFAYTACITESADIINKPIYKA
In words: Thermal shift assay. The settings on record: for Midpoint Transition Temperature in Presence of Ligand, Tm: 10 μM Tlp3, ligand 3 mM (L-valine 10 mM), pH 8.0. Format: binding.

For a further assay, the target named is T3, TlpC (Helicobacter pylori, UniProt O24911).
T3 sequence (O24911 32-299): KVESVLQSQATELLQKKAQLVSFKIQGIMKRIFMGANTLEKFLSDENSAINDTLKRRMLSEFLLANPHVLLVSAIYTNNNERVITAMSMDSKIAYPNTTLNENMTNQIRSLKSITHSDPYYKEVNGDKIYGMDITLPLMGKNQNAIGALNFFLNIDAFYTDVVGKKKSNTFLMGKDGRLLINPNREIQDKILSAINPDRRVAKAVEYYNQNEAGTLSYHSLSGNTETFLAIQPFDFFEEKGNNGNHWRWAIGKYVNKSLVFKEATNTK
The conditions noted are these: 25 °C; cited from earlier work.

Where “and” joins values, the source holds several entries; their conditions need not be identical. Equal entries are not always repeated.

One may read the Kd as the free concentration of one partner at which half of the binding sites on the other are occupied at equilibrium, for simple one-to-one binding. In the case of `C[C@H](N)C(=O)O` [L-Alanine, L-alanine], in assay [1], the equilibrium dissociation constant (Kd) is 4.6 µM and 3.2 µM; the “Midpoint Transition Temperature in Presence of Ligand, Tm” value (shortened to “Midpoint Transition Temperature”) turned out to be 56.1 ± 0.1 °C.
`CC[C@H](C)[C@H](N)C(=O)O` [L-Isoleucine, L-isoleucine]: in assay [2], the “Midpoint Transition Temperature” value worked out at 64.5 ± 0.3 °C.
For `CC(C)C[C@H](N)C(=O)O` [L-Leucine, L-leucine], the Kd was 222 µM and 90 µM and 116 µM in assay [2]; 5 ± 1 µM in assay [1]. In addition, the figures for the “Midpoint Transition Temperature” value in assay [2] and in assay [1] were 64.2 ± 0.2 °C and 54.7 ± 0.3 °C, respectively.
With `CCC[C@H](N)C(=O)O` [L-Norvaline, L-norvaline], the “Midpoint Transition Temperature” value in assay [2] turned out to be 63.7 ± 0.3 °C.
Regarding `N[C@@H](CO)C(=O)O` [L-Serine, L-serine], in assay [1], the Kd was 9 µM and 4 µM; the “Midpoint Transition Temperature” value was 55.1 ± 0.3 °C.
For the molecule `CC(C)[C@H](N)C(=O)O` [L-Valine, L-valine], in assay [2], the Kd is 578 µM and 240 µM and 316 µM; the “Midpoint Transition Temperature” value is 64.6 ± 0.3 °C. Moreover, in assay [1], the Kd is 1.5 µM and 1.2 µM; the “Midpoint Transition Temperature” value stood at 57.6 ± 0.2 °C.
`C[C@H](O)C(=O)O` [L-Lactate, L-lactate]: the “ΔHL(T) from ITC (enthalpy of ligand binding)” value on TlpC is reported as “–21.32 kcal mol^–1”.
